# Assays:
# VCAM-1 = assay: LPS-induced VCAM-1 expression in HUVEC (Western blot); type: cell-based, human; conditions: peptide 50 ug/ml, LPS 1 ug/ml, 6 h exposure
# Excerpt: HUVECs were challenged with the peptide alone, peptide +LPS and LPS. LPS induces expression of VCAM-1 (lane 3).
# The effect of the peptide on the inflammatory response of bacterial lipopolysaccaride (LPS), a potent inducer of cytokines and cell adhesion molecules was also examined.
# [1] = tested on: NZW rabbits on 1% cholesterol diet; assay: Peptide administration to NZW rabbits on 1% cholesterol diet; type: in vivo, rabbit
# Method: Administration of Ac-hE18A-NH2 to high fat diet administered rabbits with initial cholesterol values in the range of 600 mg/dl (1 week on 1% cholesterol diet). […] A 50% decrease in plasma cholesterol was observed after administration of the peptide.
# This occurs through a lowering of plasma lipid hydroperoxide levels concomitant with a significant increase in the plasma paraoxonase (PON-1) activity. In the WHHL model, the LDL-R pathway is compromised, thus the accelerated atherogenic lipoprotein clearance is likely via the cell surface HSPG-mediated pathway, as described earlier in murine models (Garber, D. W. et al. Atherosclerosis. 163:229-237 2003).
# It has been shown that very small amounts of D-4F, a class A amphipathic helical peptide, modifies several HDL properties (Navab, M., et al. Circulation 109:3215-3220 2004). […] NZW rabbits have been studied for hypercholesterolemia and relative LDL and β-VLDL production using diets containing different amounts of cholesterol (Holvoet, P. et al. Arterioscl. Thromb. Vasc. Biol. 17:2376-2382 1997). Thus, with 0.125% (w/w) cholesterol diet, LDL cholesterol levels increase; with 0.5% and higher cholesterol levels in the diet, […]-VLDL (containing apo B-100) increases dramatically. These β-VLDL particles contain increased amounts of oxidized lipids, thus enhancing the progression of atherosclerosis (Holvoet, P. et al. Arterioscl. Thromb. Vasc. Biol. 17:2376-2382 1997). To assess the effect of the peptide in this rabbit model, a 1% cholesterol diet fed NZW rabbits were utilized.
# Rabbits responding to high cholesterol diet were randomized one week after the start of the diet to select rabbits with similar response (similar amounts of total plasma cholesterol). […] After 14 days from the first administration, plasma samples were taken from both the peptide-administered and saline administered (control) rabbits (n=3 in each group). The plasma samples from the peptide administered rabbits were not turbid, whereas the plasma samples from control rabbits were turbid. […] A second dose of peptide was administered 15 days after the first treatment. Since the cholesterol levels remained low two weeks after the second administration in peptide-administered rabbits, these and saline administered rabbits were sacrificed 51 days after the initiation of the diet. Aorta from the peptide administered and control rabbits were stained with Oil Red O. Aorta from the peptide administered rabbits had 40-50% less lesion than the control rabbit aorta.
# Therefore, possible reasons for the clearance of atherogenic lipoproteins can be in addition to rapid hepatic clearance similar to the properties of apo E, modulation of HDL properties or synthesis of macrophage apo E. If this is true, this peptide may also exert its effect on endothelial function. Indeed it was observed that there is a recovery of endothelial function as studied by the acetylcholine dose-dependent aortal relaxation (FIG. 13). […] It is possible that lipid lowering can cause reduction of oxidative stress and thus inhibition of endothelial activation.
# Results observed in HepG2 cells indicate that peptide associates with apo B-containing plasma lipoproteins to incorporate positive charges on the lipoprotein surface. This enables the apo B-containing lipoproteins to interact with heparan sulphate proteoglycans (HSPGs). The effect of these peptides on the mode of reduction of plasma cholesterol levels in mouse models and the two rabbit models can be determined. In NZW rabbits fed a 1% cholesterol-diet, a reduction of plasma cholesterol is observed which lasts for 14 days after the peptide administration; whereas in the WHHL rabbits, the reduction is initially rapid and returns to original levels within 3 days. Since the WHHL rabbit model is LDL-receptor defective, the differential effects of the peptide in two models can be due to differences in the receptor-mediated clearance pathways of atherogenic lipoproteins. […]
# apo E null mice = assay: Plasma cholesterol in apo E null mice after i.v. dual-domain peptides; type: in vivo; conditions: iv, n=4
# Method: The peptides represented are Ac-hE-18A-NH2, Ac-hE4F-NH2, and Ac-hE-Sc2F-NH2. Peptides Ac-hE-18A-NH2, Ac-hE-4F-NH2 and Ac-hE-Sc18A were administered (i.v.) to apo E null mice (n=4) and plasma cholesterol values were determined at before administration (0 min), 5 min and 2 h after administration.
# As described above, peptides Ac-hE-18A-NH2, Ac-hE-4F-NH2 and Ac-hE-Sc18A were administered (iv) to apo E null mice (n=4) and plasma cholesterol values were determined at before administration (0 min), 5 min and 2 h after administration.
# WHHL rabbits = assay: Single bolus i.v. administration in WHHL rabbits; type: in vivo, rabbit
# Method: 100 μg of the ^125I-labelled peptide was mixed with 1 ml of plasma from 6 month old WHHL rabbit. After incubation for 1 h at room temperature, the plasma was subjected to CLiP analysis (66). Radioactivity in different fractions was determined and plotted on the CLiP profile. […] This improvement was associated with a reduction in 2 markers of oxidative stress.
# Results observed in HepG2 cells indicate that peptide associates with apo B-containing plasma lipoproteins to incorporate positive charges on the lipoprotein surface. This enables the apo B-containing lipoproteins to interact with heparan sulphate proteoglycans (HSPGs). The effect of these peptides on the mode of reduction of plasma cholesterol levels in mouse models and the two rabbit models can be determined. In NZW rabbits fed a 1% cholesterol-diet, a reduction of plasma cholesterol is observed which lasts for 14 days after the peptide administration; whereas in the WHHL rabbits, the reduction is initially rapid and returns to original levels within 3 days. Since the WHHL rabbit model is LDL-receptor defective, the differential effects of the peptide in two models can be due to differences in the receptor-mediated clearance pathways of atherogenic lipoproteins. HepG2 cells, primary hepatocytes from apo E null and LDL-R null mice, and primary rabbit hepatocytes can be used to determine the molecular factors in the receptor-mediated clearance pathways of atherogenic lipoproteins.
# HepG2 cells = assay: Apo A-I / prebeta-HDL secretion by HepG2 cells; type: cell-based
# [2] = single bolus 15 mg/kg intravenous
substance,measurement,setting,value
Ac-LRKLRKRLLRDWLKAFYDKVAEKLKEAF-NH2 [Ac-hE-18A-NH2],plasma clearance of the peptide,3 mg/kg radiolabelled peptide,much faster than that observed in WHHL rabbits
same,plasma residence time t1/2,rabbits,1 to 2 min
same,inhibition of LPS-induced VCAM-1 expression,VCAM-1,more than 80%
same,less aorta lesion than control (Oil Red O),"[1]; 3 mg/kg i.v. twice, sacrificed 51 days after initiation of diet",40-50%
same,amounts of VLDL and LDL in plasma,"[1]; 3 mg/kg i.v., 14 days after first administration, n=3",Significantly decreased
same,lesion by en face analysis after 50 days,"[1]; 3 mg/kg, saline-treated control ~50% lesion coverage",little to no lesion
same,decrease in plasma cholesterol,"[1]; 5 mg/kg iv two times, n=4 (FIG. 11 legend)",50%
same,plasma cholesterol values at end of 14 days,"[1]; 5 mg/kg iv two times, n=4, control in the range of 2000 mg/dl",~1000 mg/dL
same,plasma cholesterol less than in control rabbits at end of experiment,[1]; 7.5 mg/kg i.v. in two intervals one week apart,50%
same,duration of reduction of plasma cholesterol after peptide administration,[1]; NZW rabbits fed 1% cholesterol diet,14 days
same,"endothelial function, acetylcholine dose-dependent aortal relaxation",[1]; aortal rings after 51 days of 1% cholesterol diet,vascular response almost similar to aortas obtained from rabbits on a normal diet
same,time for which total plasma cholesterol levels were significantly decreased,[1]; single intravenous administration 3 mg/kg,15 days
same,reduction in plasma cholesterol levels at 2 h time point,apo E null mice,large reduction
same,time for plasma cholesterol to return to original levels,WHHL rabbits; WHHL rabbits,≤ 3 days
same,arterial endothelial function,WHHL rabbits; [2],significantly improved
same,formation of superoxide anion in arteries,WHHL rabbits; [2],significantly reduced
same,increase in HDL paraoxonase activity,WHHL rabbits; [2],5 fold
same,plasma lipid hydroperoxide content,WHHL rabbits; [2],reduced significantly
same,plasma cholesterol levels at 18 h,"WHHL rabbits; single bolus 15 mg/kg intravenous, reduced from 562±29 mg/dl",287 ± 22 mg/dL
same,prebeta-HDL production,"HepG2 cells; equal amount on weight basis (50 ug/ml), first overnight incubation",produced preβ-HDL
same,prebeta-HDL amount after second and third overnight incubation,HepG2 cells; fresh cell medium without peptide,produced significant amounts

# From patent publication US8557767B2, “Synthetic apolipoprotein E mimicking polypeptides and methods of use” (UAB Research Foundation, priority 2007, dated 2013)
